Here are results for 21 molecules from patent US20120165310A1, “ETHER DERIVATIVES OF BICYCLIC HETEROARYLS” (NOVARTIS AG, priority 2009, published 2012).

For the experiment, the target named is T1, IGF-1R (Homo sapiens, UniProt P08069).
T1 construct: expressed in transfected cells; host or cells: Hek293 (Hek293-IGF1R)
T1 sequence (P08069 31-1367): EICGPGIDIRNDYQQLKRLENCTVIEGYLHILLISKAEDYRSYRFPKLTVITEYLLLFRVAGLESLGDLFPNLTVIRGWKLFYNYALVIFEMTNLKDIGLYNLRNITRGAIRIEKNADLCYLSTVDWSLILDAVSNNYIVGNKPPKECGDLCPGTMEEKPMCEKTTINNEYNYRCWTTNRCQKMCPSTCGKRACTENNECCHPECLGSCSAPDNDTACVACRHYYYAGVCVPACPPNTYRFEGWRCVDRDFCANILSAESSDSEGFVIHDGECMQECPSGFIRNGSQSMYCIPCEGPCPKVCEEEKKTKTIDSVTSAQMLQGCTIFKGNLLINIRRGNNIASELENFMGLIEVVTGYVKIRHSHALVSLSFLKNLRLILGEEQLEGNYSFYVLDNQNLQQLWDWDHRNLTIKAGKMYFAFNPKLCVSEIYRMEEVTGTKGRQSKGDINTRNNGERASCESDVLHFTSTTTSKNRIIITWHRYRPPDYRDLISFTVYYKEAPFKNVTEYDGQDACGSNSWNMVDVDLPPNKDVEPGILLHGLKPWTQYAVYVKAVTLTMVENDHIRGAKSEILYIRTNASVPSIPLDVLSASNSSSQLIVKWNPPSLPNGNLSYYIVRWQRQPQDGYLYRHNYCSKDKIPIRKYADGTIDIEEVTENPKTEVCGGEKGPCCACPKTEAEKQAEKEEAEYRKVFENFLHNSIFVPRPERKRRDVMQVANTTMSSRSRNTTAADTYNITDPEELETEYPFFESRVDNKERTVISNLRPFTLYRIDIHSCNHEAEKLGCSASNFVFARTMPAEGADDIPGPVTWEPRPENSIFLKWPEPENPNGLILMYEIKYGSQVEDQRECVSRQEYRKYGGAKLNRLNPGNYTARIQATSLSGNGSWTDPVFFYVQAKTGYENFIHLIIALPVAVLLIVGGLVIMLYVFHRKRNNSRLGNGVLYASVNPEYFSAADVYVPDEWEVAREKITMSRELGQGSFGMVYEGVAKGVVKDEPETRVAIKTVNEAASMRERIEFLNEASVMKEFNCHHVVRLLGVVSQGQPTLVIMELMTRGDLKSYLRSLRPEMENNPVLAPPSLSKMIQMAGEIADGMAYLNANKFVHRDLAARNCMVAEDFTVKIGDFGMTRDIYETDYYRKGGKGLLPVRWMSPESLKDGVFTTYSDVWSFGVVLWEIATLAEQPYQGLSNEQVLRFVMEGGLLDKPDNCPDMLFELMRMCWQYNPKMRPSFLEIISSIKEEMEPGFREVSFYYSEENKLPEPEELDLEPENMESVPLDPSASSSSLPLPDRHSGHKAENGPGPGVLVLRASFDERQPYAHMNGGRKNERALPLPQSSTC
Put plainly: Cellular IGF-1R assay: capture ELISA (MSD) of receptor phosphorylation in Hek293 cells. The experiment is classed as cell-based. The conditions noted are these: Hek293-IGF1R cells, 1 h pre-incubation, 10 min IGF stimulation, pIGF1R capture ELISA. How it is done: (§1) In this assay the activity of the compounds of the invention against Insulin-like growth factor I (IGF-I) induced autophosphorylation of the IGF-IR was determined. The assay was conducted as follows: Compound-mediated inhibition of IGF1R and INSR phosphorylation in Hek293 cells transduced with the corresponding receptors was assessed in a capture ELISA format using the MSD (Meso Scale Discovery) platform. Briefly, 30,000 cells washed and diluted in starvation medium (DMEM high glucose supplemented with 0.1% BSA) were seeded in 90 μL per well into 96-well plates pre-coated with poly-D-lysine (0.1 mg/mL in PBS/O). After 24 h incubation at 37° C. and 5% CO2, dose-response effects were determined with 3-fold serial compound dilutions, starting at 10 μM. The final vehicle concentration is 0.1% DMSO in all wells. Following pre-incubation with compounds for 1 h, receptor phosphorylation was triggered by a 10 min exposure to 1.0 ng/μL IGF for Hek293-IGF1R cells, and 5.0 ng/μL insulin for Hek293-InsR cells. Cell lysis was achieved by addition of 80 μL MSD lysis buffer per aspirated well, incubation on ice for 20 min, and a freeze-thaw cycle. Target phosphorylation was then assessed by transferring volumes corresponding to approx. 6 μg Hek293-IGF1R or 0.6 μg Hek293-InsR lysates to MSD assay plates pre-coated with total-IGF1R or total-InsR Abs, respectively. […] Immune complexes were detected by a SULFO-Tag™-coupled anti-rabbit IgG antibody in the presence of 150 μL MSD read-buffer. Light emission at 620 nm triggered by application of electric current was recorded on a MSD Sectorlmager 6000. Acquired raw data (mean Ru-ECL units) were processed in an Excel analysis template. The plate blank (MSD lysis buffer) was subtracted from all data points. The effect of a particular test compound concentration on receptor phosphorylation was expressed relative to the window defined by ligand-stimulated vs unstimulated control cells (set as 100%). IC50 values [nM] were determined using 4-parametric curve-fitting (XLfit software, V4.3.2).
as §1, with “Compound-mediated” for “In this assay the activity of the compounds of the invention against Insulin-like growth factor I (IGF-I) induced autophosphorylation of the IGF-IR was determined. The assay was conducted as follows: Compound-mediated”, “cells trans-duced” for “cells transduced”, “receptors were” for “receptors was”, “concentration was” for “concentration is”, “for Hek293-IGF1 R” for “for Hek293-IGF1R”, “with total-IGF1 R” for “with total-IGF1R”
On the technique in general: In an ELISA, binding on a coated surface is turned into a signal by an enzyme label.
A word on the IC50: it is the concentration that inhibits the measured activity by half. Molecule `CC1(C)CN(C[C@H]2C[C@@H](n3cc(-c4cccc(OCC5CCCCO5)c4)c4c(N)ncnc43)C2)CCS1(=O)=O` (stereo partly drawn) [Example 105, 7-[cis-3-(2,2-Dimethyl-1,1-dioxo-1λ6-thiomorpholin-4-ylmethyl)-cyclobutyl]-5-[3-(tetrahydro-pyran-2-ylmethoxy)-phenyl]-7H-pyrrolo[2,3-d]pyrimidin-4-ylamine] registered an IC50 of 409 nM.
In the case of `CCC(=O)NCC1CC(n2cc(-c3cccc(OCC45CCC(CC4)O5)c3)c3c(N)ncnc32)C1` (stereo not drawn) [Example 162, N-(3-{4-amino-5-[3-(7-oxa-bicyclo[2.2.1]hept-1-ylmethoxy)-phenyl]-pyrrolo[2,3-d]pyrimidin-7-yl}-cyclobutylmethyl)-propionamide] it was 101 nM.
In the case of `Nc1ncnc2c1c(-c1cccc(OCC34CCC(CC3)O4)c1)cn2[C@@H]1CCN(C2CCS(=O)(=O)CC2)C1` [Example 215, 7-[(R)-1-(1,1-dioxo-hexahydro-thiopyran-4-yl)-pyrrolidin-3-yl]-5-[3-(7-oxa-bicyclo[2.2.1]hept-1-ylmethoxy)-phenyl]-7H-pyrrolo[2,3-d]pyrimidin-4-ylamine] it was 332 nM; in that of `Nc1ncnc2c1c(-c1cccc(OCC3CCCCO3)c1)cn2[C@H]1C[C@@H](CN2CCC2)C1` (mixture of isomers) [Example 1, (rac)-cis-7-(3-azetidin-1-ylmethyl-cyclobutyl)-5-[3-(tetrahydro-pyran-2-ylmethoxy)-phenyl]-7H-pyrrolo[2,3-d]pyrimidin-4-ylamine], 119 to 139 nM; in that of `CN1CCC(N2CCC(n3cc(-c4cccc(OCC5CCC(C)(C)O5)c4)c4c(N)ncnc43)CC2)CC1` (stereo not drawn) [Example 60, 5-[3-(5,5-dimethyl-tetrahydro-furan-2-ylmethoxy)-phenyl]-7-(1′-methyl-[1,4′]bipiperidinyl-4-yl)-7H-pyrrolo[2,3-d]pyrimidin-4-ylamine], 339 nM.
In the case of `CSC[C@H]1C[C@@H](n2cc(-c3cccc(OC[C@H]4CCCCO4)c3)c3c(N)ncnc32)C1` (relative stereo) [Example 152, 7-(cis-3-methylsuphanylmethyl-cyclobutyl)-5-{3-[(R)-1-(tetrahydro-pyran-2-yl)methoxy]-phenyl}-7H-pyrrolo[2,3-d]pyrimidin-4-ylamine] it was 281 nM.
Molecule `Nc1ncnc2c1c(-c1cccc(OCC34CCC(CC3)O4)c1)cn2C1CC(CN2CC3CC2C[S+]3[O-])C1` (single isomer, unassigned) [Example 229] gave an IC50 of 633 nM.
In the case of `NC(=O)[C@@H]1COCCN1C[C@H]1C[C@@H](n2cc(-c3cccc(OCC4CCCCO4)c3)c3c(N)ncnc32)C1` (stereo partly drawn) [Example 96, (3S)-cis-4-((3-(4-amino-5-(3-((tetrahydro-2H-pyran-2-yl)methoxy)phenyl)-7H-pyrrolo[2,3-d]pyrimidin-7-yl}-cyclobutyl)methyl)morpholine-3-carboxamide] it was 59 nM.
Consider `CC1(C)CCC(COc2cccc(-c3cn([C@H]4C[C@@H](CN5CCC(F)(F)CC5)C4)c4ncnc(N)c34)c2)O1` (single isomer, unassigned) [Example 55], for which the IC50 was 22 to 38 nM.
In the case of `CC1(C)CCC(COc2cccc(-c3cn(C4CC(CN5CCC(F)C5)C4)c4ncnc(N)c34)c2)O1` (single isomer, unassigned) [Example 46] it was 15 nM; in that of `CSC[C@H]1C[C@@H](n2cc(-c3cccc(OCC4CCCCO4)c3)c3c(N)ncnc32)C1` (relative stereo) [Example 85, 7-(cis-3-methylsulfanylmethyl-cyclobutyl)-5-[3-(tetrahydro-pyran-2-ylmethoxy)-phenyl]-7H-pyrrolo[2,3-d]pyrimidin-4-ylamine], 557 nM; in that of `Nc1ncnc2c1c(-c1cccc(OCC3CCCCO3)c1)cn2[C@H]1C[C@@H](CN2CCC[C@@H]2C(=O)O)C1` (stereo partly drawn) [Example 90, 1-(cis-3-{4-amino-5-[3-(tetrahydro-pyran-2-ylmethoxy)-pheny]-pyrrolo[2,3-d]pyrimidin-7-yl}-cyclobutylmethyl)-pyrrolidine-2-carboxylic acid], 538 nM.
In the case of `Nc1ncnc2c1c(-c1cccc(OCC34CCC(CC3)O4)c1)cn2C1CC(CN2CCC2)C1` (stereo not drawn) [Example 23, 7-(3-azetidin-1-ylmethyl-cyclobutyl)-5-[3-(7-oxa-bicyclo[2.2.1]hept-1-ylmethoxy)-phenyl]-7H-pyrrolo[2,3-d]pyrimidin-4-ylamine] it was 45 to 60 nM; in that of `[2H]C([2H])([2H])C(=O)NC[C@H]1C[C@@H](n2cc(-c3cccc(OCC45CCC(CC4)O5)c3)c3c(N)ncnc32)C1` [Example 165, d3-N-(3-{4-amino-5-[3-(7-oxa-bicyclo[2.2.1]hept-1-ylmethoxy)-phenyl]-pyrrolo[2,3-d]pyrimidin-7-yl}-cyclobutylmethyl)-acetamide], 52 nM.
`Nc1ncnc2c1c(-c1cccc(OCC34CCC(CC3)O4)c1)cn2[C@H]1C[C@@H](N2CCN(CCO)CC2)C1` (relative stereo) [Example 172, 2-[4-(cis-3-{4-amino-5-[3-(7-oxa-bicyclo[2.2.1]hept-1-ylmethoxy)-phenyl]-pyrrolo[2,3-d]pyrimidin-7-yl}-cyclobutyl)-piperazin-1-yl]-ethanol] had an IC50 of 21 nM.
In the case of `CN(C)CC1(O)CC(n2cc(-c3cccc(OCC45CCC(CC4)O5)c3)c3c(N)ncnc32)C1` (stereo not drawn) [Example 235, 3-{4-Amino-5-[3-(7-oxa-bicyclo[2.2.1]hept-1-ylmethoxy)-phenyl]-pyrrolo[2,3-d]pyrimidin-7-yl}-1-dimethylaminomethyl-cyclobutanol] it was 49 nM; in that of `Nc1ncnc2c1c(-c1cccc(OCC34CCC(CC3)O4)c1)cn2[C@H]1C[C@@H](CN2CC[C@@H](O)C2)C1` [Example 214, (R)-1-(cis-3-{4-Amino-5-[3-(7-oxa-bicyclo[2.2.1]hept-1-ylmethoxy)-phenyl]-pyrrolo[2,3-d]pyrimidin-7-yl}-cyclobutylmethyl)-pyrrolidin-3-ol], 18 nM; in that of `CC1(C)CCC(COc2cccc(-c3cn([C@H]4C[C@H](CN5CCC[C@H]5C(N)=O)C4)c4ncnc(N)c34)c2)O1` (stereo partly drawn) [Example 71, (S)-1-(trans-3-{4-amino-5-[3-(5,5-dimethyl-tetrahydro-furan-2-ylmethoxy)-phenyl]-pyrrolo[2,3-d]pyrimidin-7-yl}-cyclobutylmethyl)-pyrrolidine-2-carboxylic acid amide], less than 4 nM.
In the case of `NC(=O)[C@@H]1CCCN1C[C@H]1C[C@@H](n2cc(-c3cccc(OCC4CCCCO4)c3)c3c(N)ncnc32)C1` (stereo partly drawn) [Example 42, (S)-1-(cis-3-{4-amino-5-[3-(tetrahydro-pyran-2-ylmethoxy)-phenyl]-pyrrolo[2,3-d]pyrimidin-7-yl}-cyclobutylmethyl)-pyrrolidine-2-carboxylic acid amide] it was 26 to 39 nM; in that of `NC(=O)[C@@H]1CCCN1C[C@]1(O)C[C@@H](n2cc(-c3cccc(OCC45CCC(CC4)O5)c3)c3c(N)ncnc32)C1` [Example 198, (S)-(Z)-1-(3-(4-Amino-5-[3-(7-oxa-bicyclo[2.2.1]hept-1-ylmethoxy)-phenyl]-pyrrolo[2,3-d]pyrimidin-7-yl}-1-hydroxy-cyclobutylmethyl)-pyrrolidine-2-carboxylic acid amide], 33 nM; in that of `N#Cc1ccnc(N[C@H]2CC[C@@H](n3cc(-c4cccc(OCC56CCC(CC5)O6)c4)c4c(N)ncnc43)CC2)c1` [Example 145, 2-((1S,4S)-4-(5-(3-(7-oxabicyclo[2.2.1]heptan-1-ylmethoxy)phenyl)-4-amino-7H-pyrrolo[2,3-d]pyrimidin-7-yl)cyclohexylamino)isonicotinonitrile], 229 nM.
